Laboratory results from patent US20060069132A1, “Azolecarboxamide herbicides” (priority 2004, published 2006).

What was measured:
corn = assay: Test B pre-/postemergence herbicide test; format: in vivo, Zea mays; settings: for Plant response rating, Corn: preemergence; for Corn plant response rating: postemergence, visual rating, scale 0 (no effect) to 100 (complete control)
Method in brief: (§1)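 Pre: seeds sown, then sprayed. Post: 1–4-leaf plants (2–18 cm) sprayed at the same time. Paddy: flooded, treated at 2-leaf stage. Formulation: non-phytotoxic solvent with surfactant. Greenhouse 13–15 days; visual 0–100 score relative to controls.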

barnyardgrass [1] = assay: Test B flooded paddy test; format: in vivo, Echinochloa crus-galli; settings: 1000 g ai/ha, visual rating, scale 0 to 100 (0 no effect, 100 complete control), 13 to 15 days
Method in brief: (§2)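 Postemergence plants were sprayed with formulated test chemicals at 2 to 18 cm height (1- to 4-leaf stage); paddy species were grown to the 2-leaf stage. After 13 to 15 days in a greenhouse, injury was rated visually against untreated controls on a 0–100 scale (0 = no effect, 100 = complete control).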

redroot pigweed = assay: Test A pre-/postemergence herbicide test; format: in vivo, Amaranthus retroflexus
Method in brief: (§3)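 Seeds sown in sandy loam received a preemergence directed soil spray of compound in non-phytotoxic solvent with surfactant; postemergence plants (2–10 cm, one- to two-leaf stage) were sprayed to runoff at the same time. After ~10 days in greenhouse, injury was rated visually versus untreated controls (0 = no effect, 100 = complete control).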

wild oat = assay: Test B postemergence herbicide test; format: in vivo, Avena fatua; settings: postemergence, visual rating, scale 0 (no effect) to 100 (complete control)
Method in brief: (§4)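 Read-out: visual comparison with controls, scored 0 to 100, where 100 means complete control and 0 no effect. Formulated chemicals were applied postemergence to plants 2–18 cm tall (1- to 4-leaf), or to flooded-paddy plants at the 2-leaf stage, then held 13 to 15 days under glass.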

large crabgrass [2] = assay: Test B pre-/postemergence herbicide test; format: in vivo, Digitaria sanguinalis; settings: for Plant response rating, Crabgrass, Large: preemergence; for Crabgrass, Large plant response rating: postemergence, visual rating, scale 0 (no effect) to 100 (complete control)
Method in brief: as §1

barnyardgrass [3] = assay: Test B pre-/postemergence herbicide test; format: in vivo, Echinochloa crus-galli; settings: for Plant response rating, Barnyardgrass: preemergence; for Barnyardgrass plant response rating: postemergence, visual rating, scale 0 (no effect) to 100 (complete control)
Method in brief: (§5)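 Seeds were planted and treated preemergence with compounds formulated in a non-phytotoxic solvent mixture containing surfactant, while plants at the 1- to 4-leaf stage (2 to 18 cm) received postemergence sprays. Flooded paddy plants were grown to the 2-leaf stage. After 13 to 15 days in a greenhouse, injury was visually rated 0–100 against untreated controls.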

velvetleaf [4] = assay: Test B pre-/postemergence herbicide test; format: in vivo, Abutilon theophrasti; settings: for Plant response rating, Velvetleaf: preemergence; for Velvetleaf plant response rating: postemergence, visual rating, scale 0 (no effect) to 100 (complete control)
Method in brief: as §1

lambsquarters = assay: Test B pre-/postemergence herbicide test; format: in vivo, Chenopodium album; settings: for Plant response rating, Lambsquarters: preemergence; for Lambsquarters plant response rating: postemergence, visual rating, scale 0 (no effect) to 100 (complete control)
Method in brief: as §1

large crabgrass [5] = assay: Test A pre-/postemergence herbicide test; format: in vivo, Digitaria sanguinalis
Method in brief: as §3

cocklebur = assay: Test B pre-/postemergence herbicide test; format: in vivo, Xanthium strumarium; settings: for Plant response rating, Cocklebur: preemergence; for Cocklebur plant response rating: postemergence, visual rating, scale 0 (no effect) to 100 (complete control)
Method in brief: as §5

[6] = tested on: small flower umbrella sedge; assay: Test B flooded paddy test; format: in vivo, Cyperus difformis; settings: 1000 g ai/ha, visual rating, scale 0 to 100 (0 no effect, 100 complete control), 13 to 15 days
Method in brief: as §2

ducksalad = assay: Test B flooded paddy test; format: in vivo, Heteranthera limosa; settings: 1000 g ai/ha, visual rating, scale 0 to 100 (0 no effect, 100 complete control), 13 to 15 days
Method in brief: as §2

rice [7] = assay: Test B flooded paddy test; format: in vivo, Oryza sativa; settings: 1000 g ai/ha, visual rating, scale 0 to 100 (0 no effect, 100 complete control), 13 to 15 days
Method in brief: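 Plants grow to 1- to 4-leaf stage (2–18 cm) for postemergence spraying, or to 2-leaf stage for the paddy test. Formulated compound is applied. Greenhouse holding lasts 13–15 days. Response is scored visually relative to controls, 0 no effect to 100 complete control; a dash means no result.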

morningglory [8] = assay: Test A pre-/postemergence herbicide test; format: in vivo, Ipomoea spp.
Method in brief: as §3

barnyardgrass [9] = assay: Test A pre-/postemergence herbicide test; format: in vivo, Echinochloa crus-galli
Method in brief: as §3

Surinam grass = assay: Test B pre-/postemergence herbicide test; format: in vivo, Urochloa decumbens; settings: for Plant response rating, Surinam Grass: preemergence; for Surinam Grass plant response rating: postemergence, visual rating, scale 0 (no effect) to 100 (complete control)
Method in brief: as §1

rice [10] = assay: Test B pre-/postemergence herbicide test; format: in vivo, Oryza sativa; settings: preemergence
Method in brief: as §1

giant foxtail [11] = assay: Test B pre-/postemergence herbicide test; format: in vivo, Setaria faberi; settings: for Plant response rating, Foxtail, Giant: preemergence; for Foxtail, Giant plant response rating: postemergence, visual rating, scale 0 (no effect) to 100 (complete control)
Method in brief: as §1

wheat = assay: Test B postemergence herbicide test; format: in vivo, Triticum aestivum; set-up: key to Wheat plant response rating: 0 = no effect, 100 = complete control; settings: postemergence, 500 g ai/ha; visual rating, scale 0 (no effect) to 100 (complete control)
Method in brief: as §4

velvetleaf [12] = assay: Test A pre-/postemergence herbicide test; format: in vivo, Abutilon theophrasti
Method in brief: as §3

morningglory [13] = assay: Test B pre-/postemergence herbicide test; format: in vivo, Ipomoea coccinea; settings: for Plant response rating, Morningglory: preemergence; for Morningglory plant response rating: postemergence, visual rating, scale 0 (no effect) to 100 (complete control)
Method in brief: as §5

pigweed = assay: Test B pre-/postemergence herbicide test; format: in vivo, Amaranthus retroflexus; settings: for Plant response rating, Pigweed: preemergence; for Pigweed plant response rating: postemergence, visual rating, scale 0 (no effect) to 100 (complete control)
Method in brief: as §1

giant foxtail [14] = assay: Test A pre-/postemergence herbicide test; format: in vivo, Setaria faberi
Method in brief: as §3

blackgrass = assay: Test B postemergence herbicide test; format: in vivo, Alopecurus myosuroides; settings: postemergence, visual rating, scale 0 (no effect) to 100 (complete control)
Method in brief: as §2

[15] = 500 g ai/ha, visual rating 0-100, 0 no effect, 100 complete control
[16] = 125 g ai/ha, 0 to 100 scale, 0 is no effect, 100 is complete control
[17] = Postemergence, 500 g ai/ha, 0 to 100 scale, 0 no effect, 100 complete control
[18] = Postemergence, 2000 g ai/ha, 0 to 100 scale, 0 no effect, 100 complete control
[19] = Preemergence, 2000 g ai/ha, visual rating, 0 to 100 scale (0 no effect, 100 complete control)
[20] = preemergence, 500 g ai/ha, visual injury, 0 to 100 scale (0 no effect, 100 complete control)
[21] = Preemergence, 500 g ai/ha, visual rating, 0 to 100 scale (0 no effect, 100 complete control)

CCNC(=O)c1cc(C)cc(NC(=O)c2cc(C(C)(C)C)nn2CC)n1 [Compound 150]
70: Barnyardgrass plant response rating (barnyardgrass [1]) | Lambsquarters plant response rating (lambsquarters; 500 g ai/ha) | Pigweed plant response rating (pigweed; 125 g ai/ha) | Plant response rating, Pigweed (pigweed; [16])
15: Crabgrass, Large plant response rating (large crabgrass [5]; [17]) | Plant response rating, Velvetleaf (velvetleaf [12]; [18]) | Foxtail, Giant plant response rating (giant foxtail [14]; [21])
75: Plant response rating, Pigweed (redroot pigweed; [18]) | Pigweed plant response rating (redroot pigweed; [20])
65: Plant response rating, Barnyardgrass (barnyardgrass [9]; [18])
100: Pigweed plant response rating (redroot pigweed; [19]) | Plant response rating, Lambsquarters (lambsquarters; [15]) | Plant response rating, Pigweed (pigweed; [15])
35: Morningglory plant response rating (morningglory [8]; [19])
90: Pigweed plant response rating (pigweed; 500 g ai/ha)
40: Rice plant response rating (rice [7]) | Surinam Grass plant response rating (Surinam grass; 500 g ai/ha) | Plant response rating, Rice (rice [10]; [15]) | Morningglory plant response rating (morningglory [13]; 500 g ai/ha)
55: Foxtail, Giant plant response rating (giant foxtail [14]; [19])
10: Corn plant response rating (corn; 125 g ai/ha) | Plant response rating, Crabgrass, Large (large crabgrass [2]; [15]) | Crabgrass, Large plant response rating (large crabgrass [2]; 125 g ai/ha) | Crabgrass, Large plant response rating (large crabgrass [2]; 500 g ai/ha) | Barnyardgrass plant response rating (barnyardgrass [3]; 125 g ai/ha) | Plant response rating, Velvetleaf (velvetleaf [4]; [15]) | Plant response rating, Morningglory (morningglory [8]; [18]) | Morningglory plant response rating (morningglory [8]; [21]) | Plant response rating, Surinam Grass (Surinam grass; [15]) | Surinam Grass plant response rating (Surinam grass; 125 g ai/ha) | Plant response rating, Surinam Grass (Surinam grass; [16]) | Foxtail, Giant plant response rating (giant foxtail [11]; 500 g ai/ha) | Wheat plant response rating (wheat) | Blackgrass plant response rating (blackgrass; 500 g ai/ha)
0: Plant response rating, Corn (corn; [16]) | Plant response rating, Crabgrass, Large (large crabgrass [2]; [16]) | Plant response rating, Velvetleaf (velvetleaf [4]; [16]) | Plant response rating, Lambsquarters (lambsquarters; [16]) | Plant response rating, Cocklebur (cocklebur; [15]) | Plant response rating, Cocklebur (cocklebur; [16]) | Morningglory plant response rating (morningglory [8]; [17]) | Plant response rating, Rice (rice [10]; [16]) | Foxtail, Giant plant response rating (giant foxtail [11]; 125 g ai/ha) | Plant response rating, Foxtail, Giant (giant foxtail [11]; [16]) | Plant response rating, Morningglory (morningglory [13]; [16]) | Blackgrass plant response rating (blackgrass; 125 g ai/ha)
80: Pigweed plant response rating (redroot pigweed; [17]) | Plant response rating, Barnyardgrass (barnyardgrass [3]; [15]) | Cocklebur plant response rating (cocklebur; 500 g ai/ha) | Barnyardgrass plant response rating (barnyardgrass [9]; [19])
20: Plant response rating, Corn (corn; [15]) | Oat, Wild plant response rating (wild oat; 125 g ai/ha) | Oat, Wild plant response rating (wild oat; 500 g ai/ha) | Velvetleaf plant response rating (velvetleaf [4]; 125 g ai/ha) | Ducksalad plant response rating (ducksalad) | Velvetleaf plant response rating (velvetleaf [12]; [20]) | Plant response rating, Morningglory (morningglory [13]; [15]) | Morningglory plant response rating (morningglory [13]; 125 g ai/ha) | Foxtail, Giant plant response rating (giant foxtail [14]; [17])
25: Crabgrass, Large plant response rating (large crabgrass [5]; [21]) | Velvetleaf plant response rating (velvetleaf [12]; [17]) | Plant response rating, Foxtail, Giant (giant foxtail [14]; [18])
60: Velvetleaf plant response rating (velvetleaf [4]; 500 g ai/ha) | Cocklebur plant response rating (cocklebur; 125 g ai/ha) | Plant response rating, Foxtail, Giant (giant foxtail [11]; [15])
50: Corn plant response rating (corn; 500 g ai/ha) | Barnyardgrass plant response rating (barnyardgrass [3]; 500 g ai/ha) | Lambsquarters plant response rating (lambsquarters; 125 g ai/ha) | Plant response rating, Crabgrass, Large (large crabgrass [5]; [18]) | Crabgrass, Large plant response rating (large crabgrass [5]; [19]) | Sedge, Umbrella plant response rating [6] | Barnyardgrass plant response rating (barnyardgrass [9]; [21]) | Velvetleaf plant response rating (velvetleaf [12]; [19])
30: Plant response rating, Barnyardgrass (barnyardgrass [3]; [16]) | Barnyardgrass plant response rating (barnyardgrass [9]; [17])
